Columns and labels:
[1] = test system: catfish olfactory neurons; settings: 100 μM, catfish olfactory epithelium; cited from earlier work
receptor 5.24 = target: T1, receptor 5.24 (Carassius auratus, UniProt Q9PW88); test: cAMP accumulation in receptor 5.24-expressing HEK 293 cells; type: cell-based, goldfish; settings: 0.1 mM or 10 mM
T1 construct: The receptor 5.24 full length cDNA detects 1-2 bands in genomic DNA blots; expressed in transfected cells; host or cells: HEK 293 cells expressing SV40 large T antigen (293-TSA)
T1 sequence (Q9PW88 25-877): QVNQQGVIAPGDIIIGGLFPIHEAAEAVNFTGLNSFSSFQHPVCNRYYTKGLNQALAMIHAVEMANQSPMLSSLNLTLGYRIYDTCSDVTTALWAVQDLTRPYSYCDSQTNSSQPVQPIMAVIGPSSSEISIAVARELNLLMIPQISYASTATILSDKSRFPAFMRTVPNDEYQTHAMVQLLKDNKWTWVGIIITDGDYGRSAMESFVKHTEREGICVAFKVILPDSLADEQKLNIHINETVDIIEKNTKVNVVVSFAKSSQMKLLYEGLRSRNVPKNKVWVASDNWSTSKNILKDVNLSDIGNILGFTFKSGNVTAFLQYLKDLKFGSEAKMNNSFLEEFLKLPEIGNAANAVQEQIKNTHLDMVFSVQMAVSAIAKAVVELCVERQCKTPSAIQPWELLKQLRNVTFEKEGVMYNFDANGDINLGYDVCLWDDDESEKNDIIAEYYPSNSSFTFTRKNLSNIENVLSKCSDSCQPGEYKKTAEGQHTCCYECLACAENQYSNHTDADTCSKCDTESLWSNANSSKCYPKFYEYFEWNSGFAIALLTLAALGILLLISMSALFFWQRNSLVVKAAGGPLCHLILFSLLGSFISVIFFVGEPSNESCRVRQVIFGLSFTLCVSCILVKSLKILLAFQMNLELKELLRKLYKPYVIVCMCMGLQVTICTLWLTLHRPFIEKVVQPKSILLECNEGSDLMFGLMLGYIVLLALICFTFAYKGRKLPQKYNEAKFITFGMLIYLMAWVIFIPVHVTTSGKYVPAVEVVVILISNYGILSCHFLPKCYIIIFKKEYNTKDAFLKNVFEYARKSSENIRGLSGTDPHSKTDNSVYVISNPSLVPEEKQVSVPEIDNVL
Source text: High-Affinity Binding of Radiolabeled L-Arginine to the Cloned Goldfish Odorant Receptor. To determine the affinity of the cloned goldfish amino acid receptor for basic amino acids, we characterized the ligand-receptor interaction by radiolabeled ligand binding to receptors expressed in mammalian cells. Human embryonic kidney (HEK) 293 cells were transfected with expression plasmids containing the receptor 5.24 cDNA insert. […] We next wished to determine what second messenger pathway receptor 5.24 couples to in HEK 293 cells. Control cells or cells expressing receptor 5.24 were exposed to varying concentrations of arginine and assayed for the accumulation of IP3 and cAMP.
IP3 and cAMP Measurements. For measurements of IP3 and cAMP, cell lines 5.24-20 and 2.2-9 (negative control) were plated at densities of 3.5×10^5 cells/well in 24 well plates and incubated overnight in DMEM containing 10% FBS. All subsequent manipulations prior to reaction termination were performed at 37° C. in 5% CO2. […] IP3 levels were determined by a radioreceptor competition assay (Dupont NEN). For cAMP measurements, after the 3 hour amino acid-free preincubation cells were washed once with PBS, preincubated for 15 min in PBS containing 0.5 mM IBMX, and exposed to odorants in 400 μl PBS/0.5 mM IBMX for 30 min. cAMP levels were determined by radioimmunoassay (DuPont NEN).

N=C(N)NCCC[C@H](N)C(=O)O [L-Arginine]
fraction of olfactory neurons responding [1]: ~40%
change in cAMP levels, in words (receptor 5.24): does not cause a detectable change
